The source made the active and inactive calls. No cut-off for these calls is given here.
Assays:
SH-SY5Y [1] = test: Neuroprotective activity against 1 hr compound pretreated human SH-SY5Y cells assessed as reduction in 6-OHDA induced damage at 10^-3 uM by MTT assay; assay type: functional; parameters: scale not given: the % may be the effect or the level left
SH-SY5Y [2] = test: Neuroprotective activity against 1 hr compound pretreated human SH-SY5Y cells assessed as reduction in 6-OHDA induced damage at 10 uM by MTT assay; assay type: functional; parameters: scale not given: the % may be the effect or the level left
HEp-2 = test: Cytotoxicity against human Hep2 cells; assay type: functional, cell-based
SH-SY5Y [3] = test: Neuroprotective activity against 1 hr compound pretreated human SH-SY5Y cells assessed as reduction in 6-OHDA induced damage at 10^-4 uM by MTT assay; assay type: functional; parameters: scale not given: the % may be the effect or the level left
HL-60 = test: Cytotoxicity against human HL60 cells; assay type: functional, cell-based
SH-SY5Y [4] = test: Neuroprotective activity against 1 hr compound pretreated human SH-SY5Y cells assessed as reduction in 6-OHDA induced damage at 10^-2 uM by MTT assay; assay type: functional; parameters: scale not given: the % may be the effect or the level left
MCF7 = test: Cytotoxicity against human MCF7 cells; assay type: functional, cell-based
RAW264.7 [5] = test: Antiinflammatory activity in mouse RAW264.7 cells assessed as inhibition of LPS-induced up-regulation of pro-inflammatory protein COX-2 by Western blot analysis; assay type: functional
SH-SY5Y [6] = test: Neuroprotective activity against 1 hr compound pretreated human SH-SY5Y cells assessed as reduction in 6-OHDA induced damage at 1 uM by MTT assay; assay type: functional; parameters: scale not given: the % may be the effect or the level left
SH-SY5Y [7] = test: Neuroprotective activity against 1 hr compound pretreated human SH-SY5Y cells assessed as reduction in 6-OHDA induced damage at 10^-1 uM by MTT assay; assay type: functional; parameters: scale not given: the % may be the effect or the level left
WiDr = test: Cytotoxicity against human WiDr cells; assay type: functional, cell-based
DLD-1 = test: Cytotoxicity against human DLD1 cells; assay type: functional, cell-based
CCRF-CEM = test: Cytotoxicity against human CCRF-CEM cells; assay type: functional, cell-based
P388D1 = test: Cytotoxicity against […] cells; assay type: functional, cell-based; conditions: Mus musculus
Daoy = test: Cytotoxicity against human DaOY cells; assay type: functional, cell-based
RAW264.7 [8] = test: Antiinflammatory activity in mouse RAW264.7 cells assessed as inhibition of LPS-induced up-regulation of pro-inflammatory protein iNOS by Western blot analysis; assay type: functional
SH-SY5Y [9] = test: Neuroprotective activity against 1 hr compound pretreated human SH-SY5Y cells assessed as reduction in 6-OHDA induced damage at 10 '-4 to 10 uM by MTT assay; assay type: functional; parameters: scale not given: the % may be the effect or the level left
[10] = read-out: ED50 (the source's name)

Row | Structure (SMILES) | Activity (SH-SY5Y [1]) | Activity (SH-SY5Y [2]) | Activity (HEp-2) | Activity (SH-SY5Y [3]) | Activity (HL-60) | Activity (SH-SY5Y [4]) | Activity (MCF7) | Activity (RAW264.7 [5]) | EC50 (RAW264.7 [5]; [10]) | Activity (SH-SY5Y [6]) | Activity (SH-SY5Y [7]) | Activity (WiDr) | Activity (DLD-1) | Activity (CCRF-CEM) | Activity (P388D1) | Activity (Daoy) | Activity (RAW264.7 [8]) | EC50 (RAW264.7 [8]; [10]) | Activity (SH-SY5Y [9])
1 | C[C@@H]1[C@@H]2O[C@H]3CC[C@@]4(C=CC[C@H](C)[C@@]4(C)[C@H]13)O2 [FLAVALIN A] | 5.84% | 20.9% | inactive | 16.9% | inactive | 30.8% | inactive | Dose-dependent effect | 26.5 µM | 35.1% | 25.3% | inactive | inactive | inactive | inactive | inactive | Dose-dependent effect | 20.5 µM | 
2 | C[C@@H]1[C@@H](O)O[C@@]23C=CC[C@H](C)[C@@]2(C)[C@H]1C(=O)CC3 [FLAVALIN B] | 32.6% | 30.1% | inactive | 29.6% | inactive | 30.2% | inactive |  |  | 21.3% | 24.3% | inactive | inactive | inactive | inactive | inactive |  |  | 
3 | CO[C@@H]1O[C@@]23C=CC[C@H](C)[C@@]2(C)[C@@H](C(=O)CC3)[C@@H]1C [FLAVALIN D] |  |  | inactive |  | inactive |  | inactive |  |  |  |  | inactive | inactive | inactive | inactive | inactive |  |  | <20%
4 | CO[C@H]1O[C@@]23C=CC[C@H](C)[C@@]2(C)[C@@H](C(=O)CC3)[C@@H]1C [FLAVALIN C] |  |  | inactive |  | inactive |  | inactive |  |  |  |  | inactive | inactive | inactive | inactive | inactive |  |  | <20%

— ChEMBL document CHEMBL1687855, “Nardosinane sesquiterpenoids from the Formosan soft coral Lemnalia flava” (2011)
